According to US5892029A, “3-hydroxy-2(1H)-pyridinone chelating agents” (priority 1997, dated 1999):
“Also recorded” adds a separate entry of the source. Like-named read-outs stand apart in the source and are kept apart here.

How the values were obtained:
[1] = Promoting excretion of 238Pu(IV) in mice by injected ligands (Table 3); assay type: in vivo; conditions: 30 μmol/kg i.p.
Source text: (§1) Animal studies were completed using methods detailed in Radiation Protection Dosimetry, 1994, 53, 305: P. W. Durbin et al., "In Vivo Chelation of Am(III), Pu(IV), Np(V) and U(VI) in Mice by TREN-(Me-3,2-HOPO)"; Radiation Protection Dosimetry, 1989, 17, 351: P. W. Durbin et al., "Removal of ^238 Pu(IV) from Mice by Polycatechoylate, -Hydroxamate or -Hydroxypyridinonate Ligands"; Radiation Research, 1984, 99, 85: P. W. Durbin et al., "Specific Sequestering Agents for the Actinides . . . "; Radiation Research, 1984, 99, 106: P. W. Durbin et al., "Removal of Pu and Am from Beagles and Mice . . . "; Radiation Research, 1980, 81, 170: R. D. Lloyd et al., and P. W. Durbin et al., "Specific Sequestering Agents for the Actinides . . . ". The foregoing articles are hereby incorporated by reference.
(§2) Radionuclides used in the animal studies came from a variety of sources. The ^238 Pu(IV) citrate and ^241 Am(III) citrate solutions were prepared for animal injection by 8- to 10-fold dilution with 0.14M NaC1 (pH 4) of concentrated stock solutions (0.08M sodium citrate buffer) that had been held in frozen storage at Lawrence Berkeley Laboratory (hereinafter LBL) for several years. [The ^238 Pu(IV) was originally obtained from D. R. Atherton at the University of Utah Radiobiology Laboratory, Salt Lake City. The ^241 Am(III) solution had been obtained many years earlier from the LBL Actinide Chemistry group.]
The novel chelating agents of the present invention were tested for their effectiveness in promoting excretion of ^238 Pu(IV) in mice by injected ligands as follows. Mice, in groups of five, each received an intravenous injection of 1850 Bq^238 Pu(IV) in 0.2 mL of citrate buffer. One hour later, 30 μmol/kg of ligand was injected intraperitoneally in 0.5 mL of saline. The mice were killed 24 hours after the Pu injection, frozen, and dissected after partial thawing. The ^238 Pu in skeleton, soft tissues, and separated excreta was determined by counting the ^234 U L x-rays. […]

[2] = assay type: in vivo, mice; conditions: for body weight / kidney weight / plasma urea N: mean ± SD; for toxicity / mortality (in words): mouse, in vivo
Description: The test of acute toxicity of these novel ligands was carried out as follows. […] The ligand was dissolved in 0.5 to 1.0 ml of saline at pH 7 to 8. After a period of observation, the mice were killed, selected tissues were removed and fixed for histopathological examination,and unusual findings at autopsy were recorded.

[3] = Promoting excretion of 241Am(III) in mice by injected ligands (Table 5); assay type: in vivo; conditions: 30 μmol/kg i.p. at 3 to 5 min after actinide i.v.
Source text: as §1, §2
(§3) One of the novel chelating agents of the present invention, TREN-Me-3,2-HOPO, was also tested for effectiveness in promoting excretion of ^241 AM(III), ^237 Np(V), and ^232 U(VI) by injection into mice, as follows: Mice, in groups of five, each received an intravenous injection of (a) 1100 Bq of ^241 Am(III) in 0.2 mL of citrate buffer, (b) 150 Bq of ^232 UO2 Cl2 plus 3.6 mg of ^235 UO2 Cl2 in 0.2 mL of saline, or (c) 200 Bq of ^237 NpO2 Cl ([…] of ^237 NPO2 Cl) in 0.2 mL of saline. Three to five minutes later, 30 μmol/kg of TREN-Me-3,2-HOPO was injected intraperitoneally in 0.5 mL of saline. The mice were killed 24 hours after the actinide injection, frozen, and dissected after partial thawing. The skeleton, soft tissues, and separated excreta were radioanalyzed by counting the ^241 Am gamma rays, or the alpha particles emitted by ^237 Np or ^232 U (and its ingrowing daughters). Removal of those actinides from mice by injected TREN-Me-3,2-HOPO is summarized in Table 5, which also includes data for mice similarly treated with CaNa3 -DTPA and for actinide-injected controls. […] The structure of Am(III)-TREN-Me-3,2-HOPO is considered to resemble that of the Gd(III) complexes (see Example 20). Complexation of the fraction of Np(V) that is reduced in vivo to Np(IV) is considered to resemble that of Pu(IV). Complexation of U(VI) is considered to take place through binding to UO2^2+.
(§4) ^a Ligands (30 μmol/kg) i.p. at 3 to 5 min after actinide i.v.;

[4] = Promoting excretion of 237Np(V) in mice by injected ligands (Table 5); assay type: in vivo; conditions: 30 μmol/kg i.p. at 3 to 5 min after actinide i.v.
Source text: as §1
The ^237 Np(V) was obtained from J. Bucher of the LBL Actinide Chemistry group as NpO2 Cl in 0.1M HCl. It was diluted to the desired radioactivity concentration in 0.14M NaCl and the pH was adjusted to about 4.5 with NaOH just before use.
as §3, §4

[5] = Promoting excretion of U(VI) in mice by injected ligands (Table 5); assay type: in vivo; conditions: 30 μmol/kg i.p. at 3 to 5 min after actinide i.v.
Source text: as §1
The ^232 U was obtained from the Isotope Products Laboratory, Burbank, Calif., and ^234,235 U was obtained as U metal from long-held LBL storage. The two U sources were combined and dissolved in 6N HNO3, dried, and redissolved in 0.1N HCl. The daughter radioactivities were removed by elution from a Dowex-50X4 column (22 cm length, 0.7 cm diameter, 1.5 mL min^-1 flow rate) with 3.2N HCl. The U fractions (previously identified by a trial run with ^234,235 U alone) were combined, dried, and redissolved in 0.14M NaCl at pH 5.5.
as §3, §4

[6] = 30 μmol/kg i.p. at 1 h; reported previously (footnote e); cited from earlier work
[7] = Fe(III); background; cited from earlier work
[8] = Gd3+ complex stability in aqueous solution; assay type: binding
[9] = protocol I: 100 μmol/kg × 10 daily i.p., 11 d
[10] = protocol I: 100 μmol/kg × 10 daily i.p., 11 d, of 5 mice
[11] = protocol I: 100 μmol/kg × 10 daily i.p., 21 d
[12] = protocol I: 100 μmol/kg × 10 daily i.p., 21 d, of 5 mice
[13] = protocol II: 500 μmol/kg × 2 in 8 h i.p., 11 d
[14] = protocol II: 500 μmol/kg × 2 in 8 h i.p., 11 d, of 5 (5-LI) or 10 (5-LI-O) mice

Molecule: Cn1ccc(C(=O)NCCCCNC(=O)c2ccn(C)c(=O)c2O)c(O)c1=O [4-LI-Me-3,2-HOPO, 1,4-bis[(3-hydroxy-1-methyl-2-oxo-1,2-dihydro-pyridin-4-yl)carboxamido]butane]
- effectiveness of Pu removal, injected (in words) [1]: as effective or more effective than the hexadentate and octadentate chelating agents
- body weight ([2]; protocol IB: 100 μmol/kg, 5 d): 85 ± 8 percent control
- kidney weight ([2]; protocol IB: 100 μmol/kg, 5 d): 190 ± 63 percent control
- plasma urea N ([2]; protocol IB: 100 μmol/kg, 5 d): > 2000 percent control
- no. of survivors ([2]; protocol IB: 100 μmol/kg, 5 d, of 3 mice): 0

Molecule: Cn1ccc(C(=O)NCCCCCNC(=O)c2ccn(C)c(=O)c2O)c(O)c1=O [5-LI-Me-3,2-HOPO, 1,5-bis[(3-hydroxy-1-methyl-2-oxo-1,2-dihydro-pyridin-4-yl)carboxamido]pentane]
- effectiveness of Pu removal, injected (in words) [1]: as effective or more effective than the hexadentate and octadentate chelating agents
- toxicity / mortality (in words) [2]: low toxicity
- body weight [2, 9]: 102 ± 5 percent control
- kidney weight [2, 9]: 109 ± 14 percent control
- plasma urea N [2, 9]: 89 ± 1 percent control
- no. of survivors [2, 10]: 5
- body weight [2, 11]: 102 ± 5 percent control
- kidney weight [2, 11]: 100 ± 4 percent control
- plasma urea N [2, 11]: 101 ± 2 percent control
- no. of survivors [2, 12]: 5
- body weight [2, 13]: 99 ± 3 percent control
- kidney weight [2, 13]: 109 ± 9 percent control
- plasma urea N [2, 13]: 98 ± 18 percent control
- no. of survivors [2, 14]: 5

Molecule: Cn1ccc(C(=O)NCCOCCNC(=O)c2ccn(C)c(=O)c2O)c(O)c1=O [5-LI-O-Me-3,2-HOPO, 1,5-bis[(3-hydroxy-1-methyl-2-oxo-1,2-dihydro-pyridin-4-yl)carboxamido]-3-oxypentane]
- effectiveness of Pu removal, injected (in words) [1]: as effective or more effective than the hexadentate and octadentate chelating agents
- toxicity / mortality (in words) [2]: low toxicity
- body weight [2, 9]: 103 ± 5 percent control
- kidney weight [2, 9]: 100 ± 19 percent control
- plasma urea N [2, 9]: 83 ± 5 percent control
- no. of survivors [2, 10]: 5
- body weight [2, 11]: 101 ± 5 percent control
- kidney weight [2, 11]: 111 ± 5 percent control
- plasma urea N [2, 11]: 86 ± 18 percent control
- no. of survivors [2, 12]: 5
- body weight [2, 13]: 100 ± 2 percent control
- kidney weight [2, 13]: 108 ± 10 percent control
- plasma urea N [2, 13]: 77 ± 10 percent control
- no. of survivors [2, 14]: 110

Molecule: O=C(O)CN(CCN(CC(=O)O)CC(=O)O)CCN(CC(=O)O)CC(=O)O [CaNa3 -DTPA, reference compound]
- Am(III) in liver at 24 h [3]: 13 ± 1.5% of injected actinide
- Am(III) in skeleton at 24 h [3]: 8.5 ± 0.9% of injected actinide
- Am(III) in soft tissue at 24 h [3]: 1.9 ± 0.3% of injected actinide
- Am(III) in whole body at 24 h [3]: 24 ± 1.3% of injected actinide
- Am(III) excreta: feces and GI contents ([3]; pooled): 8.0% of injected actinide
- Am(III) excreta: urine 0-24 h ([3]; pooled): 68% of injected actinide
- Am(III) in kidneys at 24 h ([3]; pooled): 0.4% of injected actinide
- Np(V) in liver at 24 h [4]: 14 ± 5.7% of injected actinide
- Np(V) in skeleton at 24 h [4]: 40 ± 4.4% of injected actinide
- Np(V) in soft tissue at 24 h [4]: 3.5 ± 0.9% of injected actinide
- Np(V) in whole body at 24 h [4]: 58 ± 8.0% of injected actinide
- Np(V) excreta: feces and GI contents ([4]; pooled): 1.5% of injected actinide
- Np(V) excreta: urine 0-24 h ([4]; pooled): 40% of injected actinide
- Np(V) in kidneys at 24 h ([4]; pooled): 1.3% of injected actinide
- U(VI) in kidneys at 24 h [5]: 17 ± 2.8% of injected actinide
- U(VI) in liver at 24 h [5]: 1.0% of injected actinide
- U(VI) in skeleton at 24 h [5]: 19 ± 3.0% of injected actinide
- U(VI) in whole body at 24 h [5]: 38 ± 0.7% of injected actinide
- U(VI) combined excreta ([5]; combined excreta (footnote f)): 62% of injected actinide
- 238Pu excreta: feces and GI contents [6]: 5.1% of injected ^238 Pu
- 238Pu excreta: urine 0-24 h [6]: 61% of injected ^238 Pu
- 238Pu in kidneys at 24 h [6]: 1.1% of injected ^238 Pu
- 238Pu in liver at 24 h [6]: 17 ± 4.0% of injected ^238 Pu
- 238Pu in skeleton at 24 h [6]: 12 ± 2.3% of injected ^238 Pu
- 238Pu in soft tissue at 24 h [6]: 3.5 ± 1.6% of injected ^238 Pu
- 238Pu in whole body at 24 h [6]: 33 ± 6.6% of injected ^238 Pu

Molecule: O=C(N[C@H]1COC(=O)[C@@H](NC(=O)c2cccc(O)c2O)COC(=O)[C@@H](NC(=O)c2cccc(O)c2O)COC1=O)c1cccc(O)c1O [enterobactin]
- formation constant Kf [7]: ≈ 10^49
- pM [7]: 35.5

Molecule: Gadolinium (III) Ion Complex with N,N,N,-Tris[(3-hydroxy-1-methyl-2-oxo-1,2-dihydropyridin-4-yl)carboxamidoethyl]-amine [Gd(III)-TREN-3,2-HOPO complex]
- pM value for Gd^3+ [8]: 19
- formation constant log β110 ([8]; aqueous solution): 20.3
- stability of the complex (in words) ([8]; aqueous solution): very stable in aqueous solution; also recorded: substantially more stable than any of the Gd^3+ MRI agents in current clinical use
